Assay: Part 2 MAD plasma pharmacokinetics, BID oral KAR5585 for 14 days
[1] = 200 mg/dose BID Fed, Cohort 3, Day 1 AM
[2] = 400 mg/dose BID Fed, Cohort 4, Day 1 AM
[3] = 400 mg/dose BID Fed, Cohort 4, Day 1 PM
[4] = 400 mg/dose BID Fed, Cohort 4, Day 7 AM
[5] = 400 mg/dose BID Fed, Cohort 4, Day 7 PM
[6] = 400 mg/dose BID Fed, Cohort 4, Day 14 (last block, /D fits 400 mg)
[7] = Day 7 AM, blank dose cell under 400/Fed Cohort 4, /D fits 200 mg Fed Cohort 3
[8] = Day 7 AM, blank dose cell under 400/Fed Cohort 4, likely 200 mg Fed Cohort 3
[9] = Day 7 PM (3rd 7/PM block), blank dose cell under 400/Fed Cohort 4, /D fits 200 mg Fed Cohort 3
[10] = Day 7 PM, blank dose cell under 400/Fed Cohort 4, /D fits 200 mg Fed Cohort 3
[11] = Day 14 (first Day 14 block), blank dose cell under 400/Fed Cohort 4, /D fits 200 mg Fed Cohort 3

Experimental: Food effect was to be evaluated in Part 1, Period 2.
Part 2 (MAD): BID doses (separated by approximately 12 hours on Days 1 to 13) and a single AM dose on Day 14. One or more of the MAD Cohort could have been dosed once daily (QD).
Pharmacokinetic data were to be summarized descriptively.

CCOC(=O)[C@@H]1CC2(CCN(c3cc(O[C@H](c4ccc(Cl)cc4-c4ccccc4)C(F)(F)F)nc(N)n3)CC2)CN1 [KAR5585, (S)-ethyl 8-(2-amino-6-((R)-1-(5-chloro-[1,1′-biphenyl]-2-yl)-2,2,2-trifluoroethoxy)pyrimidin-4-yl)-2,8-diazaspiro[4.5]decane-3-carboxylate]
t1/2 (Geo. Mean) [1]: 2.81 h
t1/2 (Mean) [1]: 2.91 h
tmax (Median) [1]: 1.5 h
VZ/F, Day 14 (400 mg KAR5585 BID, fed): 10300 L
mean VZ/F, Day 1 (400 mg KAR5585 BID, fed): 6800 L
tmax Day 7 evening dose (400 mg KAR5585 BID, fed): 6 h
AUC0-12 (Geo. Mean) [2]: 25.3 ng·h/mL
AUC0-12 (Mean) [2]: 2.81 ng·h/mL
AUC0-∞ (Geo. Mean) [2]: 272 ng·h/mL
AUC0-∞ (Mean) [2]: 305 ng·h/mL
Cmax (Mean) [2]: 81.8 ng/mL
Vz/F (Mean) [2]: 6800 L
t1/2 (Geo. Mean) [2]: 3.00 h
tmax (Median) [2]: 2.0 h
AUC0-∞ (Geo. Mean) [3]: 633 ng·h/mL
Cmax (Geo. Mean) [3]: 1100 ng/mL
Vz/F (Geo. Mean) [3]: 3820 L
Vz/F (Mean) [3]: 4030 L
t1/2 (Geo. Mean) [3]: 4.18 h
t1/2 (Mean) [3]: 4.33 h
tmax (Median) [3]: 3.0 h
AUC0-12 (Geo. Mean) [4]: 473 ng·h/mL
AUC0-∞ (Geo. Mean) [4]: 577 ng·h/mL
Cmax (Geo. Mean) [4]: 91.3 ng/mL
Vz/F (Geo. Mean) [4]: 5680 L
Vz/F (Mean) [4]: 6220 L
t1/2 (Mean) [4]: 4.90 h
tmax (Median) [4]: 2.0 h
AUC0-12 (Geo. Mean) [5]: 394 ng·h/mL
AUC0-∞ (Geo. Mean) [5]: 534 ng·h/mL
Cmax (Mean) [5]: 69.0 ng/mL
Vz/F (Geo. Mean) [5]: 6770 L
Vz/F (Mean) [5]: 6950 L
tmax (Median) [5]: 6.0 h
AUC0-12 (Geo. Mean) [6]: 359 ng·h/mL
AUC0-24 (Geo. Mean) [6]: 433 ng·h/mL
AUC0-24 (Mean) [6]: 444 ng·h/mL
AUC0-∞ (Geo. Mean) [6]: 465 ng·h/mL
Cmax (Geo. Mean) [6]: 85.3 ng/mL
Cmax (Mean) [6]: 89.0 ng/mL
Vz/F (Geo. Mean) [6]: 9780 L
Vz/F (Mean) [6]: 10300 L
t1/2 (Geo. Mean) [6]: 6.08 h
t1/2 (Mean) [6]: 6.45 h
tmax (Median) [6]: 1.5 h
study day by which steady-state plasma levels were achieved (BID oral KAR5585 for 14 days): ≤ 7 days
tmax (Median) (Day 7 AM): 3.0 h
t1/2 (Geo. Mean) [7]: 4.21 h
t1/2 (Mean) [7]: 4.30 h
AUC0-12 (Geo. Mean) [8]: 217 ng·h/mL
AUC0-12 (Mean) [8]: 230 ng·h/mL
AUC0-∞ (Geo. Mean) [8]: 256 ng·h/mL
AUC0-∞ (Mean) [8]: 273 ng·h/mL
Vz/F (Geo. Mean) [8]: 5610 L
Vz/F (Mean) [8]: 5960 L
tmax (Median) (Day 7 PM): 6.0 h
AUC0-12 (Geo. Mean) [9]: 201 ng·h/mL
AUC0-24 (Geo. Mean) [9]: 414 ng·h/mL
AUC0-∞ (Geo. Mean) [9]: 289 ng·h/mL
AUC0-∞ (Mean) [9]: 290 ng·h/mL
Vz/F (Geo. Mean) [9]: 7000 L
Vz/F (Mean) [9]: 8710 L
AUC0-12 (Geo. Mean) [10]: 333 ng·h/mL
AUC0-24 (Geo. Mean) [10]: 583 ng·h/mL
AUC0-∞ (Geo. Mean) [10]: 406 ng·h/mL
Cmax (Mean) [10]: 42.6 ng/mL
Vz/F (Geo. Mean) [10]: 3010 L
Vz/F (Mean) [10]: 3120 L
AUC0-24 (Geo. Mean) [11]: 199 ng·h/mL
AUC0-24 (Mean) [11]: 212 ng·h/mL
C24 (Geo. Mean) [11]: BLQ
C24 (Mean) [11]: BLQ
Cmax (Geo. Mean) [11]: 43.5 ng/mL
Cmax (Mean) [11]: 48.8 ng/mL
Vz/F (Geo. Mean) [11]: 6430 L
Vz/F (Mean) [11]: 7010 L

From US20200237759A1, “DOSAGE REGIME AND METHOD FOR TREATING PULMONARY ARTERIAL HYPERTENSION” (Altavant Sciences GmbH, priority 2019, published 2020)
